Source: patent US7868204B2, “Inhibitors of histone deacetylase” (MethylGene Inc., priority 2001, dated 2011)
Like-named read-outs stand apart in the source and are kept apart here.

What was measured:
[1] = molecular target: T1, cloned recombinant human HDAC-1 (Homo sapiens, UniProt Q13547); assay: Human HDAC-1 enzyme inhibition, Assay 1 ([3H]-acetylated histone substrate, scintillation counting); assay type: biochemical
T1 construct: made in house; host or cells: Baculovirus insect cell expression system
Procedure, shortened: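 Recombinant human HDAC-1 from baculovirus-infected insect cells, preincubated with compound 30 min at 4° C. before reaction. Released [3H]-acetic acid extracted with ethyl acetate and counted by scintillation. IC50 taken from dose-response curves as concentration giving half-maximal inhibition.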

[2] = test system: HCT116 cells; assay: MTT assay; assay type: cell-based; details: Homo sapiens, HCT116 cells, 72 hours
Procedure, shortened: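 Cells plated one day before dosing, then exposed to compound 72 h at 37 °C, 5% CO2. MTT at 0.5 mg/ml final for 4 h, solubilized in DMF/SDS buffer pH 4.7; OD converted to cell number from a standard growth curve.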

[3] = test system: acetylated histone H-4 in T24 human bladder cancer cells; assay: Histone H4 acetylation in whole cells by immunoblots; assay type: cell-based; details: 16 h
Procedure, shortened: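 T24 cells were treated with HDAC inhibitors for 16 h; […] total histone protein was resolved by SDS/PAGE and immunoblotted with polyclonal anti-acetylated H4 antibody. ECL detection, with signal quantified by densitometry.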

[4] = Table 5a, read-out: Human HDAC-1 IC50
[5] = T-24, Table 5a, read-out: H4Ac (T24) EC50
[6] = Table 5E, read-out: Human HDAC-1 IC50
[7] = T-24, Table 5E, read-out: H4 Ac (T24) EC50
[8] = Table 5F, read-out: Human HDAC-1 IC50
[9] = T-24, Table 5F, read-out: H4 Ac (T24) EC50
[10] = Table 5b, read-out: Human HDAC-1 IC50
[11] = T-24, Table 5b, read-out: H4Ac (T24) EC50

T1 sequence (Q13547 whole entry): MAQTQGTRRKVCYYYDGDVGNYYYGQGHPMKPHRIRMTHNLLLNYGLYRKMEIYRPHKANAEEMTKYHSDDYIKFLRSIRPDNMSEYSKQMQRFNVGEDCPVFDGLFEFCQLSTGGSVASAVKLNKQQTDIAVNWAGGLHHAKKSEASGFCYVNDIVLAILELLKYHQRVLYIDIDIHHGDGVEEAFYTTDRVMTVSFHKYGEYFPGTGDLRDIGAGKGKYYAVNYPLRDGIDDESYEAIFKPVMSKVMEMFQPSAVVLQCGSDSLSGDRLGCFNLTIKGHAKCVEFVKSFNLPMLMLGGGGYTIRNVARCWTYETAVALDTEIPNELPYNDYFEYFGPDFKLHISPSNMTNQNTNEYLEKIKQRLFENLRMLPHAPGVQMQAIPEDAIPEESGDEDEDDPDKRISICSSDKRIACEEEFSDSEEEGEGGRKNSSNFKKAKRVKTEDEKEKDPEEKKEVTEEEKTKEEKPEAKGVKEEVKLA

Row | IC50 [1, 8] [nM] | IC50 ([2]; HCT-116, 72 h, Table 5F) [nM] | EC50 [3, 9] [nM] | SMILES | further results
1 | 900 | 700 | 1000 | COc1ccc2[nH]c(SCc3ccc(C(=O)Nc4ccccc4O)cc3)nc2c1 [compound 311] | 
2 | 2000 | 1000 | 5000 | COc1cc(OC)cc(OCc2ccc(C(=O)Nc3ccccc3N)cc2)c1 [Cpd 395, N-(2-Amino-phenyl)-4-(3,5-dimethoxy-phenoxymethyl)-benzamide] | 
3 | 4000 | 600 | 1000 | COc1ccc(NCc2ccc(C(=O)Nc3ccccc3N)cc2)cn1 [Cpd 421] | 
4 | 3000 | 400 | 5000 | COc1ccc(NCc2ccc(C(=O)Nc3ccccc3N)cc2)c(OC)n1 [Cpd 388, N-(2-Amino-phenyl)-4-[(2,6-dimethoxy-pyridin-3-ylamino)-methyl]-benzamide] | 
5 | 3000 | 600 | 2000 | Cc1onc2c1c(=O)n(Cc1ccc(C(=O)Nc3ccccc3N)cc1)c1cccc(Cl)c21 [Cpd 247] | 
6 | 2000 | 200 | 1000 | COc1ccc(N(Cc2ccc(C(=O)Nc3ccccc3N)cc2)C(=O)Nc2ccc(Cl)cc2)cc1OC [Cpd 372, N-(2-Amino-phenyl)-4-[3-(4-chloro-phenyl)-1-(3,4-dimethoxy-phenyl)-ureidomethyl]-benzamide] | 
7 | 3000 | 100 | 1000 | COc1ccc2nc(SCc3ccc(C(=O)Nc4ccccc4N)cc3)[nH]c2c1 [compound 376, N-(2-Amino-phenyl)-4-(5-methoxy-1H-benzimidazol-2-yl-sulfanylmethyl)-benzamide] | 
8 | 4000 | 600 | 1000 | COc1cc(CNc2ccc(C(=O)Nc3ccccc3N)cc2)cc(OC)c1 [Cpd 393, N-(2-Amino-phenyl)-4-(3,5-dimethoxy-benzylamino)-benzamide] | 
9 | 4000 | 2000 | 25000 | COc1cccc(SCc2ccc(C(=O)Nc3ccccc3N)cc2)c1 [Cpd 394] | 
10 | 2000 | 8000 | < 1000 | Nc1ccccc1NC(=O)c1ccc(CNc2cc(-c3ccccc3)[nH]n2)cc1 [Cpd 468, N-(2-Amino-phenyl)-4-[(5-phenyl-1H-pyrazol-3-ylamino)-methyl]-benzamide] | 
11 | 3000 | 900 | 2000 | Cc1cc(Cl)nc(NCc2ccc(C(=O)Nc3ccccc3N)cc2)n1 [Cpd 418, N-(2-Amino-phenyl)-4-[(4-chloro-6-methyl-pyrimidin-2-ylamino)-methyl]-benzamide] | 

The remaining lines, values behind:

Row | SMILES | IC50 [1, 8] [nM] | IC50 ([2]; HCT-116, 72 h, Table 5F) [nM] | EC50 [3, 9] [nM] | further results
12 | Nc1nc(NCc2ccc(/C=C/C(=O)Nc3ccccc3N)cc2)nc(NC2Cc3ccccc3C2)n1 [Cpd 83] |  |  |  | IC50 [1, 4]: 3000 nM; IC50 ([2]; HCT-116, 72 h, Table 5a): 5000 nM; EC50 [3, 5]: 5000 nM
13 | Nc1ccccc1NC(=O)c1ccc(Cn2nnc3ccccc3c2=O)cc1 [Cpd 155, N-(2-Amino-phenyl)-4-(4-oxo-4H-benzo[d][1,2,3]triazin-3-ylmethyl)-benzamide] |  |  |  | IC50 [1, 6]: 400 nM; IC50 ([2]; HCT-116, 72 h, Table 5E): 400 nM; EC50 [3, 7]: 1000 nM
14 | CCn1c(=O)n(Cc2ccc(C(=O)Nc3ccccc3N)cc2)c(=O)c2sccc21 [Cpd 255] | 2000 | 800 | 1000 | 
15 | COc1ccc(NCc2ccc(/C=C/C(=O)Nc3ccccc3N)cc2)cn1 [Cpd 109, N-(2-Amino-phenyl)-3-{4-[(6-methoxy-pyridin-3-ylamino)-methyl]-phenyl}-acrylamide] |  |  |  | IC50 ([1]; Table 5c, read-out: Human HDAC-1 IC50): 5000 nM; IC50 ([2]; HCT-116, 72 h, Table 5c): 8000 nM; EC50 ([3]; T-24, Table 5c, read-out: H4Ac (T24) EC50): 15000 nM
16 | CSc1ccc(NCc2ccc(C(=O)Nc3ccccc3N)cc2)cc1 [Cpd 437] | 3000 | 400 | 1000 | 
17 | Nc1ccccc1NC(=O)c1ccc(Cn2nnc3ccc(Cl)cc3c2=O)cc1 [Cpd 348, N-(2-Amino-phenyl)-4-(6-chloro-4-oxo-4H-benzo[d][1,2,3]triazin-3-ylmethyl)-benzamide] | 2000 | 300 | 1000 | 
18 | COc1cc(NCc2ccc(-c3ccc(C(=O)Nc4ccccc4N)cc3)cc2)cc(OC)c1OC [Cpd 189, N-(2-Amino-phenyl)-4-[4-{(3,4,5-trimethoxy-phenylamino)-methyl}-phenyl]-benzamide] | 3000 | 2000 | 5000 | 
19 | Nc1ccccc1NC(=O)c1ccc(NCc2ccc(F)cc2)cc1 [Cpd 413, N-(2-Amino-phenyl)-4-(4-fluoro-benzylamino)-benzamide] | 2000 | 2000 | 3000 | 
20 | Nc1ccccc1NC(=O)c1ccc(NCc2ccc(F)cc2)nc1 [Cpd 175] |  |  |  | IC50 [1, 6]: 4000 nM; IC50 ([2]; HCT-116, 72 h, Table 5E): 500 nM; EC50 [3, 7]: 3000 nM
21 | COc1cccc(-c2ccc(C(=O)Nc3ccccc3N)cc2)c1 [Cpd 166] |  |  |  | IC50 [1, 6]: 2000 nM; IC50 ([2]; HCT-116, 72 h, Table 5E): 5000 nM; EC50 [3, 7]: 5000 nM
22 | Cc1cc(C)c(NCc2ccc(C(=O)Nc3ccccc3N)cc2)c(C)c1 [Cpd 410, N-(2-Amino-phenyl)-4-[(2,4,6-trimethyl-phenylamino)-methyl]-benzamide] | 900 | 100 | > 5000 | 
23 | Nc1ccccc1NC(=O)c1ccc(CSc2nnc(-c3ccccc3)o2)cc1 [Cpd 177] |  |  |  | IC50 [1, 6]: 1000 nM; IC50 ([2]; HCT-116, 72 h, Table 5E): 400 nM; EC50 [3, 7]: 1000 nM
24 | Nc1nc(NCCCc2ccccc2)nc(NCc2ccc(C(=O)Nc3ccccc3N)cc2)n1 [Cpd 470] |  |  |  | IC50 [1, 10]: 2000 nM; IC50 ([2]; HCT-116, 72 h, Table 5b): 700 nM; EC50 [3, 11]: 3000 nM
25 | Nc1ccccc1NC(=O)c1ccc(CNc2nc(NCCc3ccccc3)nc(NC3CC3)n2)cc1 [Cpd 471] |  |  |  | IC50 [1, 10]: 400 nM; IC50 ([2]; HCT-116, 72 h, Table 5b): 1000 nM; EC50 [3, 11]: 3000 nM
26 | CC(=O)Nc1sc(Cc2ccc(C(=O)Nc3ccccc3N)cc2)c(C)c1C#N [compound 281, N-(2-Amino-phenyl)-4-(5-acetylamino-4-cyano-3-methyl-thiophen-2-ylmethyl)-benzamide] | 500 | 600 | 1000 | 
27 | Nc1nc(CC(=O)N2CCN(Cc3ccc4c(c3)OCO4)CC2)nc(NCc2ccc(C(=O)Nc3ccccc3N)cc2)n1 [18b] |  |  |  | IC50 [1, 4]: 600 nM; IC50 ([2]; HCT-116, 72 h, Table 5a): 5000 nM; EC50 [3, 5]: 10000 nM
28 | Nc1nc(NCc2ccc(C(=O)Nc3ccccc3N)cc2)nc(N2CCc3ccccc32)n1 [Cpd 22, 4-{[4-Amino-6-(2,3-dihydro-indol-1-yl)-[1,3,5]triazin-2-ylamino]-methyl}-N-(2-amino-phenyl)-benzamide] |  |  |  | IC50 [1, 4]: 3000 nM; IC50 ([2]; HCT-116, 72 h, Table 5a): 800 nM; EC50 [3, 5]: 1000 nM
29 | COc1ccc(CCNc2nc(NCc3ccc(C(=O)Nc4ccccc4N)cc3)nc(NC3CC3)n2)cc1 [Cpd 476] |  |  |  | IC50 [1, 10]: 2000 nM; IC50 ([2]; HCT-116, 72 h, Table 5b): 1000 nM; EC50 [3, 11]: 2000 nM
30 | Nc1ccccc1NC(=O)c1ccc(CNc2ccc3[nH]c(SCc4cccnc4)nc3c2)cc1 [Cpd 451] | 4000 | 200 | 3000 | 
31 | COc1cc(Nc2nc(N)nc(NCc3ccc(C(=O)Nc4ccccc4N)cc3)n2)cc(OC)c1OC [Cpd 21, N-(2-Amino-phenyl)-4-{[4-amino-6-(3,4,5-trimethoxy-phenylamino)-[1,3,5]triazin-2-ylamino]-methyl}-benzamide] |  |  |  | IC50 [1, 4]: 4000 nM; IC50 ([2]; HCT-116, 72 h, Table 5a): 4000 nM; EC50 [3, 5]: 25000 nM
32 | COc1ccccc1CCNc1nc(N)nc(NCc2ccc(C(=O)Nc3ccccc3N)cc2)n1 [Cpd 23, 4-({4-Amino-6-[2-(2-methoxy-phenyl)-ethylamino]-[1,3,5]triazin-2-ylamino}-methyl)-N-(2-amino-phenyl)-benzamide] |  |  |  | IC50 [1, 4]: 2000 nM; IC50 ([2]; HCT-116, 72 h, Table 5a): 700 nM; EC50 [3, 5]: 1000 nM
33 | Nc1nc(NCc2ccc(C(=O)Nc3ccccc3N)cc2)nc(N2CCN(c3ccccc3)CC2)n1 [Cpd 11] |  |  |  | IC50 [1, 4]: 2000 nM; IC50 ([2]; HCT-116, 72 h, Table 5a): 600 nM; EC50 [3, 5]: 2000 nM
34 | Nc1ccccc1NC(=O)c1ccc(-c2ncc[nH]2)cc1 [Cpd 249] | 4000 | 1000 | 2000 | 
35 | Cn1ccnc1SCc1ccc(C(=O)Nc2ccccc2N)cc1 [Cpd 139, N-(2-Amino-phenyl)-4-(1-methyl-1H-imidazol-2-ylsulfanylmethyl]-benzamide] |  |  |  | IC50 [1, 6]: 3000 nM; IC50 ([2]; HCT-116, 72 h, Table 5E): 3000 nM; EC50 [3, 7]: 5000 nM
36 | COc1ccc(N(Cc2ccc(C(=O)Nc3ccccc3N)cc2)C(=O)Nc2ccc(SC)cc2)cc1OC [compound 317, N-(2-Aminophenyl)-4-[1-(3,4-dimethoxyphenyl)-3-(4-methylsulfanylphenyl)-ureidomethyl]-benzamide] | 2000 | 300 | 1000 | 
37 | CCCCn1cnc2c(NCc3ccc(C(=O)Nc4ccccc4N)cc3)nc(Cl)nc21 [Cpd 333, N-(2-Amino-phenyl)-4-[(9-butyl-2-chloro-9H-purin-6-ylamino)-methyl]-benzamide] | 2000 | 100 | 1000 | 
38 | Nc1ccccc1NC(=O)/C=C/c1ccc(NCc2cccc(O)c2)nc1 [Cpd 524, N-(2-Amino-phenyl)-3-[6-(3-hydroxy-benzylamino)-pyridin-3-yl]-acrylamide] |  |  |  | IC50 ([1]; Table 5d, read-out: HDAC-1 IC50): 3000 nM; IC50 ([2]; HCT-116, Table 5d): 2000 nM; EC50 ([3]; T-24, Table 5d, read-out: H4Ac(T24) EC50): 3000 nM
